Measurements: PMC10107836 (Chembiochem, 2022)
Several values for one entry are separate records, joined by “and”; a condition that tells them apart may be missing. Equal values may be shown once.

Experiments:
AcmJRL [1] = target: T1, AcmJRL (Ananas comosus, UniProt Q53J09); type: binding; conditions: for RFU: FITC‐labelled AcmJRL at 50 μg mL^−1, average RFU±s.d. from 6 replicates
T1 sequence (Q53J09 1-145): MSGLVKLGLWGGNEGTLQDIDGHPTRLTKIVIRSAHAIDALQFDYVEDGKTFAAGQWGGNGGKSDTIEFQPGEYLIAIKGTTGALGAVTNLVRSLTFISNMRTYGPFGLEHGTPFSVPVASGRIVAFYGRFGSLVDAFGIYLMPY

AcmJRL [2] = target: T1, AcmJRL; assay: Reporter ligand displacement assay; type: binding; conditions: carbohydrate at 10 mM
[3] = system: AcmJRL−S‐protein interaction; type: binding, SARS‐CoV‐2
AcmJRL [4] = target: T2, AcmJRL (Ananas comosus, UniProt Q53J09); type: biochemical; conditions: SD, n = 3
T2 sequence (Q53J09 2-145): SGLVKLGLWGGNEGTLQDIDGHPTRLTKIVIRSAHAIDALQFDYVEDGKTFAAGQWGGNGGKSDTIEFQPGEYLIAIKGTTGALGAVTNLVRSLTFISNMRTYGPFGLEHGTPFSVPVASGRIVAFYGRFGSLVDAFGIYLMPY

AcmJRL [5] = target: T1, AcmJRL; assay: Semiotik glycan array with Cy3-labelled AcmJRL; type: binding
[6] = target: human angiotensin-converting-enzyme-2 (ACE2) receptor, recombinant (human) (UniProt Q9BYF1); assay: SPR
human angiotensin-converting-enzyme-2 (ACE2) receptor, recombinant (human), sequence (Q9BYF1 18-740): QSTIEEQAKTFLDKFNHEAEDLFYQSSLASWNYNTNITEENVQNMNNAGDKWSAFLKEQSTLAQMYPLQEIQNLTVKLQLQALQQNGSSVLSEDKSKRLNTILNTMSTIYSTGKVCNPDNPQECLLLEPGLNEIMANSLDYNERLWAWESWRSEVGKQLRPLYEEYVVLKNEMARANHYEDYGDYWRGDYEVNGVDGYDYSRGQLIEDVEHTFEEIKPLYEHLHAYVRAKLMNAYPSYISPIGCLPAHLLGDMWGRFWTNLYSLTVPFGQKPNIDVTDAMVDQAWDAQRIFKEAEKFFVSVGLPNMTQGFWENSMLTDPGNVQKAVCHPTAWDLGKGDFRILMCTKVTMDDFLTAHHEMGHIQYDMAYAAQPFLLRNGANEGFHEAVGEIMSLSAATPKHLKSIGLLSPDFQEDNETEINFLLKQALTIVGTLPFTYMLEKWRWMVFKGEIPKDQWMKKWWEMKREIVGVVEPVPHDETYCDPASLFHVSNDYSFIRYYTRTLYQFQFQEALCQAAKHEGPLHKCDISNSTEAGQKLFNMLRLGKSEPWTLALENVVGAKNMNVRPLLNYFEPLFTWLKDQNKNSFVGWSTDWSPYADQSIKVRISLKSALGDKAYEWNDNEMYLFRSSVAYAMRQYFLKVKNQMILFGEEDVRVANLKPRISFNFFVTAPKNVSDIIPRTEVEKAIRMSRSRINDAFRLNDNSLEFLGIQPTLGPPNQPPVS

[7] = target: SARS-CoV-2 spike RBD (SARS-CoV-2) (UniProt P0DTC2); assay: SPR

Compound: OC[C@H]1O[C@H](O[C@H]2[C@H](O)[C@@H](O)[C@H](O)O[C@@H]2CO)[C@H](O)[C@@H](O)[C@@H]1O [CFG‐GLYCAN ID 195, Glc‐α‐1,4‐Glc‐β]
- RFU (AcmJRL [1]): 33±5 RFU

Compound: CC(=O)N[C@@H]1[C@@H](O)[C@H](O)[C@@H](CO)O[C@H]1O [D-GlcNAc, N‐acetylglucosamine]
- inhibition of AcmJRL, single concentration (in words) (AcmJRL [2]): confirmed as ligands

Compound: OC[C@H]1O[C@@H](O[C@H]2[C@H](O)[C@@H](O)[C@H](O)O[C@@H]2CO)[C@H](O)[C@@H](O)[C@H]1O [D‐lactose, Gal‐β‐1,4Glc]
- effect on AcmJRL binding to S-protein (in words) [3]: did not interfere

Compound: OC[C@H]1O[C@H](OC[C@H]2O[C@H](O[C@]3(CO)O[C@H](CO)[C@@H](O)[C@@H]3O)[C@H](O)[C@@H](O)[C@@H]2O)[C@H](O)[C@@H](O)[C@H]1O [D‐raffinose, Gal‐α‐1,6Glc‐α‐1,2Fruc]
- effect on AcmJRL binding to S-protein (in words) [3]: did not interfere

Compound: CO[C@H]1O[C@H](CO)[C@@H](O)[C@H](O)[C@@H]1O [Me-α-D-Man, methyl α-D-mannopyranoside]
- IC50 (AcmJRL [4]): 10700 µM

Compound: O=C[C@H](O)[C@@H](O)[C@H](O[C@@H]1O[C@H](CO)[C@@H](O)[C@H](O)[C@H]1O)[C@H](O)CO [cellobiose, Glc‐β‐1,4‐Glc]
- inhibition of AcmJRL, single concentration (in words) (AcmJRL [2]): had no effect

Compound: N[C@H]1C(O)O[C@H](CO)[C@@H](O)[C@@H]1O (some centres unmarked) [glucosamine]
- inhibition of AcmJRL, single concentration (in words) (AcmJRL [2]): confirmed as ligands

Compound: OC[C@H]1O[C@H](O[C@H]2[C@H](O)[C@@H](O)[C@H](O)O[C@@H]2CO)[C@H](O)[C@@H](O)[C@@H]1O [maltobiose, Glc‐α‐1,4‐Glc]
- inhibition of AcmJRL, single concentration (in words) (AcmJRL [2]): showed highest inhibition

Compound: -3GalNAcβ1-4(L6dTalα1-3)Manα1-3L6dTalα1- [A. hydrophila O34deAc]
- binding on Semiotik glycan array (in words) (AcmJRL [5]): recognised

Compound: -6Manα1- [Mannan]
- binding on Semiotik glycan array (in words) (AcmJRL [5]): confirmed as a ligand

Compound: -8(D-Ala1-7)Leg5Acα2-4GlcAβ1-3GlcNAcβ1- [E. coli O161]
- binding on Semiotik glycan array (in words) (AcmJRL [5]): recognised

Compound: Manα1-6(Manα1-3)Manβ-sp4 [(Ma)3b]
- binding on Semiotik glycan array (in words) (AcmJRL [5]): showed no binding

Compound: Man‐α‐1,6(Man‐α‐1,3)Man‐α‐1,6(Man‐α‐1,3)Man‐β [CFG‐GLYCAN ID 310]
- RFU (AcmJRL [1]): 410±141 RFU
- binding response on CFG glycan array (in words) (AcmJRL [1]; FITC‐labelled AcmJRL, 5 and 50 μg mL^−1): highest binding responses

Compound: pineapple-derived jacalin-related lectin AcmJRL (natural protein)
- Kd [6]: 22.1 µM
- koff [6]: 0.0122 s⁻¹
- kon [6]: 590 M⁻¹ s⁻¹
- Kd [7]: 12.9 µM and 35 µM
- koff [7]: 0.0194 s⁻¹
- kon [7]: 1490 M⁻¹ s⁻¹
